Consider eleven molecules from PubChem BioAssay (NCI).

Molecules are shown by their SMILES.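 Grown in 96-well plates, cells were treated for 48 hours with each compound at five concentrations. Insufficient inhibition: endpoint recorded as highest concentration tested. GI50 marks 50% less growth. At the TGI there is no net growth.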

Some test systems named below: CCRF-CEM leukemia; CAKI-1 renal; NCI/ADR-RES ovarian; SK-MEL-28 melanoma; NCI-H522 lung; MALME-3M melanoma; MCF7 breast; RPMI-8226 leukemia; UACC-62 melanoma; SK-MEL-2 melanoma.
Holding throughout (test): growth of human tumour cells (NCI), 48 h

For the molecule `O=C1c2c(F)c(F)c(F)c(F)c2C(=O)N1c1ccc(F)cc1F`, the GI50 was 0.958 µM in the assay with CCRF-CEM leukemia; 8.44 µM in the assay with CAKI-1 renal; 7.55 µM in the assay with NCI/ADR-RES ovarian; 13.4 µM with SK-MEL-28 melanoma; 6.58 µM in the assay on NCI-H522 lung; 13.4 µM with MALME-3M melanoma. For the same molecule, the GI50 is 12.9 µM in the assay on MCF7 breast, 3.81 µM with RPMI-8226 leukemia, 4.11 µM with UACC-62 melanoma and 34.4 µM in the assay on SK-MEL-2 melanoma. Also, the TGI was 6.82 µM in the assay on CCRF-CEM leukemia; 25.5 µM in the assay on CAKI-1 renal; 30.5 µM in the assay on NCI/ADR-RES ovarian; greater than 72.4 µM with SK-MEL-28 melanoma; greater than 25 µM in the assay with NCI-H522 lung; 33.9 µM with MALME-3M melanoma. Further, the TGI is greater than 55.9 µM with MCF7 breast, 65.4 µM in the assay with RPMI-8226 leukemia, 14.3 µM with UACC-62 melanoma and greater than 100 µM in the assay with SK-MEL-2 melanoma.

On to `O=C1NC(=NCc2ccccc2)S/C1=C\c1ccc2ncccc2c1`, for which the GI50 in the assay on CCRF-CEM leukemia is greater than 17.1 µM; in the assay on CAKI-1 renal, greater than 25 µM; in the assay on NCI/ADR-RES ovarian, greater than 25 µM; in the assay with SK-MEL-28 melanoma it was greater than 25 µM; with NCI-H522 lung, greater than 15.5 µM; with MALME-3M melanoma it was greater than 25 µM. Further, the GI50 with MCF7 breast, in the assay on RPMI-8226 leukemia, with UACC-62 melanoma and in the assay with SK-MEL-2 melanoma was greater than 25 µM in each case. For the same molecule, the TGI in the assay on CCRF-CEM leukemia, in the assay with CAKI-1 renal, with NCI/ADR-RES ovarian, in the assay with SK-MEL-28 melanoma, in the assay with NCI-H522 lung and in the assay on MALME-3M melanoma was greater than 25 µM in each case. In addition, the TGI in the assay on MCF7 breast, in the assay with RPMI-8226 leukemia, in the assay with UACC-62 melanoma and with SK-MEL-2 melanoma was greater than 25 µM in each case.

Regarding `O=C1OCC2=C1C(c1cccc(Br)c1)c1cc3c(cc1N2CCO)OCCO3` (stereo not given), the GI50 is 0.0763 µM in the assay on CCRF-CEM leukemia; 0.0522 µM in the assay on CAKI-1 renal; 0.0635 µM in the assay with NCI/ADR-RES ovarian; 0.0884 µM with SK-MEL-28 melanoma; 0.0116 µM with NCI-H522 lung; 0.0288 µM with MALME-3M melanoma. Besides, the GI50 with MCF7 breast was 0.103 µM; with RPMI-8226 leukemia, 0.0714 µM; with UACC-62 melanoma, 0.022 µM; with SK-MEL-2 melanoma, 0.0426 µM. For the same molecule, the TGI in the assay on CCRF-CEM leukemia is greater than 26.3 µM; with CAKI-1 renal it was 7.54 µM; in the assay on NCI/ADR-RES ovarian, 0.273 µM; in the assay on SK-MEL-28 melanoma, greater than 50 µM; in the assay on NCI-H522 lung, 0.0478 µM; in the assay on MALME-3M melanoma, 20.8 µM. Further, the TGI is greater than 50 µM with MCF7 breast, 14 µM in the assay on RPMI-8226 leukemia, greater than 23.7 µM in the assay with UACC-62 melanoma and 1.29 µM in the assay with SK-MEL-2 melanoma.

On to `C=C1C[C@H](O)[C@H](Br)C(C)(C)[C@@]12CCC(C)=C(Cl)C2`, for which the GI50 is 0.445 µM with CCRF-CEM leukemia; 0.133 µM in the assay with CAKI-1 renal; 0.247 µM in the assay on NCI/ADR-RES ovarian; 0.458 µM with SK-MEL-28 melanoma; 0.416 µM with NCI-H522 lung; 0.31 µM in the assay on MALME-3M melanoma. The GI50 is 0.275 µM with MCF7 breast, 0.229 µM with RPMI-8226 leukemia, 0.675 µM in the assay with UACC-62 melanoma and 0.422 µM with SK-MEL-2 melanoma. The TGI in the assay on CCRF-CEM leukemia was 7.92 µM; with CAKI-1 renal, 13.2 µM; in the assay on NCI/ADR-RES ovarian it was 11.2 µM; in the assay with SK-MEL-28 melanoma, 2.78 µM; in the assay on NCI-H522 lung, 3.46 µM; with MALME-3M melanoma, 2.3 µM. The TGI is 1.97 µM with MCF7 breast, 1.25 µM in the assay with RPMI-8226 leukemia, 3.15 µM in the assay with UACC-62 melanoma and 2.61 µM in the assay with SK-MEL-2 melanoma.

For the molecule `CC[C@@H](c1ccc(O)c(O)c1)[C@@H](CC)c1ccc(O)c(O)c1`, the GI50 in the assay with CCRF-CEM leukemia was 2.88 µM; in the assay with CAKI-1 renal, 2.77 µM; with NCI/ADR-RES ovarian, 10.1 µM; with SK-MEL-28 melanoma, 19.1 µM; in the assay on NCI-H522 lung, 2.46 µM; with MALME-3M melanoma it was 3.91 µM. Also, the GI50 in the assay on MCF7 breast was 34.9 µM; in the assay on RPMI-8226 leukemia, 4.31 µM; in the assay on UACC-62 melanoma, 10.4 µM; in the assay on SK-MEL-2 melanoma, 30.7 µM. For the same molecule, the TGI with CCRF-CEM leukemia is 9.39 µM; in the assay with CAKI-1 renal, 9.43 µM; in the assay with NCI/ADR-RES ovarian, 62.7 µM; in the assay with SK-MEL-28 melanoma it was 44.6 µM; in the assay with NCI-H522 lung, 5.63 µM; in the assay with MALME-3M melanoma it was 19.8 µM. The TGI in the assay on MCF7 breast is greater than 100 µM; in the assay with RPMI-8226 leukemia it was 26.3 µM; in the assay with UACC-62 melanoma, 23.4 µM; with SK-MEL-2 melanoma, 77.8 µM.

On to `CN1CCN(C(=O)COc2ccc(C34CC5CC(CC(C5)C3)C4)cc2)CC1`, for which the GI50 with CCRF-CEM leukemia is 5.44 µM; in the assay on CAKI-1 renal it was 15.6 µM; with NCI/ADR-RES ovarian, 21.7 µM; in the assay with SK-MEL-28 melanoma it was 12.7 µM; with NCI-H522 lung, 15 µM; in the assay with MALME-3M melanoma, 7.64 µM. Besides, the GI50 in the assay on MCF7 breast was 12.7 µM; in the assay with RPMI-8226 leukemia, 2.09 µM; with UACC-62 melanoma it was 11 µM; with SK-MEL-2 melanoma, 15.5 µM. The TGI in the assay with CCRF-CEM leukemia amounted to 27.8 µM; with CAKI-1 renal it was 30.2 µM; in the assay with NCI/ADR-RES ovarian, 84.4 µM; in the assay with SK-MEL-28 melanoma, 26.2 µM; in the assay with NCI-H522 lung, 33.4 µM; in the assay on MALME-3M melanoma, 22.3 µM. In addition, the TGI with MCF7 breast was 29.7 µM; with RPMI-8226 leukemia, 5.73 µM; in the assay on UACC-62 melanoma it was 23.4 µM; in the assay with SK-MEL-2 melanoma it was 30.4 µM.

Turning to `CC1(C)[C@@H](NOCCCN)CC[C@]2(C)[C@H]3C(=O)C=C4[C@@H]5C[C@](C)(C(=O)O)CC[C@]5(C)CC[C@@]4(C)[C@]3(C)CC[C@@H]12`, the GI50 in the assay with CCRF-CEM leukemia is 7.52 µM; in the assay with CAKI-1 renal it was 2.44 µM; with NCI/ADR-RES ovarian, 10.6 µM; in the assay with SK-MEL-28 melanoma it was 4.08 µM; in the assay with NCI-H522 lung it was 2.08 µM; in the assay with MALME-3M melanoma, 4.56 µM. Besides, the GI50 in the assay on MCF7 breast was 4.09 µM; with RPMI-8226 leukemia, 2.8 µM; with UACC-62 melanoma, 3.85 µM; in the assay with SK-MEL-2 melanoma it was 5.3 µM. Also, the TGI in the assay with CCRF-CEM leukemia is greater than 100 µM; with CAKI-1 renal, 6.26 µM; with NCI/ADR-RES ovarian, 69.4 µM; in the assay with SK-MEL-28 melanoma, 13.6 µM; in the assay with NCI-H522 lung it was 4.85 µM; in the assay with MALME-3M melanoma it was 16.9 µM. For the same molecule, the TGI is 17.1 µM in the assay on MCF7 breast, 19.7 µM with RPMI-8226 leukemia, 14.8 µM with UACC-62 melanoma and 26.6 µM in the assay with SK-MEL-2 melanoma.

As for `COc1ccccc1NC(=O)c1cc2cc(Br)ccc2cc1O`, the GI50 in the assay with CCRF-CEM leukemia is 2.62 µM; in the assay with CAKI-1 renal, 1.42 µM; with NCI/ADR-RES ovarian, 2.75 µM; in the assay with SK-MEL-28 melanoma, 4.46 µM; with NCI-H522 lung, 1.86 µM; with MALME-3M melanoma it was 1.39 µM. The GI50 was 1.76 µM with MCF7 breast, 1.45 µM in the assay with RPMI-8226 leukemia, 1.7 µM in the assay with UACC-62 melanoma and 2.03 µM with SK-MEL-2 melanoma. Further, the TGI stood at 9.5 µM with CCRF-CEM leukemia; 4.69 µM in the assay on CAKI-1 renal; 12.1 µM with NCI/ADR-RES ovarian; 14.4 µM in the assay with SK-MEL-28 melanoma; 7 µM in the assay on NCI-H522 lung; 4.87 µM in the assay on MALME-3M melanoma. Also, the TGI in the assay with MCF7 breast amounted to 9.3 µM; in the assay on RPMI-8226 leukemia it was 4.66 µM; with UACC-62 melanoma, 8.23 µM; in the assay with SK-MEL-2 melanoma, 5.51 µM.

Regarding `COC(=O)[C@]12CC[C@@H](C)[C@H](C)[C@@H]1C1=CC[C@@H]3[C@@]4(C)C[C@@H](O)[C@H](O)[C@@](C)(CO)[C@@H]4[C@H](O)C[C@@]3(C)[C@]1(C)CC2`, the GI50 with CCRF-CEM leukemia was 7.77 µM; in the assay with CAKI-1 renal it was 13.1 µM; in the assay on NCI/ADR-RES ovarian, 15.5 µM; with SK-MEL-28 melanoma it was 11.8 µM; in the assay with NCI-H522 lung, 20.9 µM; in the assay with MALME-3M melanoma, 13 µM. In addition, the GI50 is 12.1 µM in the assay on MCF7 breast, 5.18 µM in the assay on RPMI-8226 leukemia, 10.1 µM with UACC-62 melanoma and 22.6 µM in the assay with SK-MEL-2 melanoma. Also, the TGI in the assay on CCRF-CEM leukemia worked out at 36.9 µM; in the assay with CAKI-1 renal, 27.3 µM; in the assay with NCI/ADR-RES ovarian, 35.1 µM; with SK-MEL-28 melanoma it was 30.3 µM; in the assay with NCI-H522 lung it was 43.3 µM; in the assay with MALME-3M melanoma, 32 µM. In addition, the TGI amounted to 41 µM in the assay with MCF7 breast, 31.3 µM in the assay on RPMI-8226 leukemia, 23.6 µM in the assay with UACC-62 melanoma and 48.3 µM in the assay with SK-MEL-2 melanoma.

For the molecule `CN(C)c1ccc(/C=N/NC(=S)Nc2ccccc2)cc1`, the TGI in the assay on CCRF-CEM leukemia, with CAKI-1 renal, with NCI/ADR-RES ovarian, in the assay with SK-MEL-28 melanoma, with NCI-H522 lung and in the assay on MALME-3M melanoma was greater than 100 µM each time. Besides, the TGI in the assay with MCF7 breast, in the assay on RPMI-8226 leukemia, in the assay on UACC-62 melanoma and with SK-MEL-2 melanoma was greater than 100 µM each time.

Take `C=C(C)C(=O)O[C@@H]1C[C@@]2(C)O[C@@H]2C[C@H](O)/C(C)=C/[C@H]2OC(=O)C(=C)[C@@H]21`: the TGI was 63.6 µM in the assay on CCRF-CEM leukemia; 67.4 µM in the assay with CAKI-1 renal; greater than 100 µM with NCI/ADR-RES ovarian; 56.5 µM with SK-MEL-28 melanoma; 31.6 µM in the assay on NCI-H522 lung; 57.2 µM in the assay with MALME-3M melanoma. Besides, the TGI in the assay on MCF7 breast, with RPMI-8226 leukemia, with UACC-62 melanoma and in the assay on SK-MEL-2 melanoma was greater than 100 µM in each case.
